Assay results: US10945938B2, “Lactone-containing compositions for malodor elimination” (Takasago International Corporation, priority 2014, dated 2021)
“And” between values parts separate entries of the source, which are not always exact repeats. Identical values can stand only once.

Legend:
[1] = Methyl mercaptan suppression analysis by GC-PFPD, aqueous conditions (Examples 1-4); conditions: for Methyl Mercaptan Suppression (%): ethanol/deionized water, about 10 ppm methyl mercaptan sodium salt, room temperature 2 hours, replicate values; for suppression of the amount of methyl mercaptan (in words): lactone alone, 100 or 200 ppm, aqueous conditions, Tables 1-4
From the text: (§1) Methyl mercaptan suppression analysis was used to evaluate malodor elimination effects of the compounds. Methyl mercaptan is known to be a major oral malodor material. For example, methyl mercaptan is found in the oral cavity of halitosis patients and also found in malodor producing food products (e.g., garlic). A multipurpose sampler (MPS 2, Gerstel Inc, Baltimore Md.)—Gas Chromatography (6890N, Agilent Technologies Inc, Wilmington Del.) with the Pulsed Flame Photometric Detector (PFPD, model 5380, OI Analytical, College Station, Tx) was used for the methyl mercaptan analysis. 0.5% (w/v) sodium thiomethoxide, which is a sodium salt of methyl mercaptan (purchased from Aldrich chemical company, Inc. Allentown, Pa.) in deionized water was used as the methyl mercaptan stock solution, which was freshly prepared for every test day.
200 ppm or 100 ppm lactone (36 μl of 1% (200 ppm) or 0.5% (100 ppm) (w/v) of the test malodor eliminating compounds in 200 proof ethanol), 144 μl of 200 proof ethanol, and 1620 μl of deionized water were added into a 2 ml GC vial. The prepared vial was placed on a sample tray of the multipurpose sampler-GC-PFPD. 3.6 μl of methyl mercaptan stock solution was added in the GC vial using the multipurpose sampler, and the GC vial was left to sit at room temperature for 2 hours. 0.4 μl of the test solution was injected into the GC inlet (an Agilent tapered focus liner with glass wool was installed, split mode, 10:1 split ratio) using the multipurpose sampler. The carrier gas flow rate was 1.5 ml/min (in constant flow mode) and the Agilent DB-1MS UI column (L60 m×ID 0.250 mm×thickness 0.25 μm) was used for the analysis. […] The GC oven was held at 280° C. for 5 minutes. Ethanol alone was used as a blank control. The final concentration of test malodor eliminating compounds were 200 ppm or 100 ppm, and final methyl mercaptan sodium salt concentration was about 10 ppm.
Malodor (methyl mercaptan) suppression was calculated as follows: Malodor (methyl mercaptan) Suppression (%)=(GC area of blank control sample−GC area of test sample)/GC area of blank control sample×100.

[2] = Methyl mercaptan suppression analysis by GC-PFPD, non-aqueous (ethanol) conditions (Examples 5-9); conditions: for Methyl Mercaptan Suppression (%): 200 proof ethanol, 10 ppm methyl mercaptan sodium salt, room temperature 2 hours
From the text: as §1
For the screening test, 100 ppm lactone (20 μl of 0.5% of lactone in 200 proof ethanol (w/v)), 300 ppm lactone (30 μl of 1% of lactone in 200 proof ethanol (w/v)), 200 ppm phenolic compound (20 μl of 1% of phenolic compound in 200 proof ethanol (w/v)) and 300 ppm phenolic compound (30 μl of 1% of phenolic compound in 200 proof ethanol (w/v)) were tested. In addition, various combinations of a lactone and a phenolic compound were tested. The lactones and phenolic compounds were pipetted into 2 ml GC vials, and 200 proof ethanol was added up to 1000 μl. The prepared vial was placed on a sample tray of the multipurpose sampler-GC-PFPD. 2 μl methyl mercaptan stock solution was added in the GC vial utilizing the multipurpose sampler, and the vial was left to sit at room temperature for 2 hours. 0.4 μl of the test solution was injected into the GC inlet (an Agilent tapered focus liner with glass wool was installed, split mode, 10:1 split ratio) using the multipurpose sampler. The carrier gas flow rate was 1.5 ml/min (in constant flow mode) and the Agilent DB-1 MS UI column (L60 m×ID 0.250 mm×thickness 0.25 μm) was used for the analysis. The temperature of the GC oven started at 40° C. and after 5 minutes, the temperature was increased to 180° C. at a speed of 20° C./min, and subsequently to 280° C. at a speed of 40° C./min, which was held for 5 minutes.
200 proof ethanol alone was used as a blank control. The final concentration of the methyl mercaptan sodium salt was 10 ppm.
Malodor (methyl mercaptan) suppression was calculated as follows: Malodor (methyl mercaptan) Suppression (%)=(GC area of blank control sample−GC area of test sample)/GC area of blank control sample×100.

[3] = 200 ppm test compound alone, values of several testing sets
[4] = 300 ppm test compound alone, replicate values

SMILES | Methyl Mercaptan Suppression (%) ([1]; 100 ppm test compound alone) | suppression of the amount of methyl mercaptan (in words) [1] | Methyl Mercaptan Suppression (%) [2, 4] | also measured
O=C1C=CCO1 [2(5H) furanone] | 97% and 95% and 100% | suppressed the amount of methyl mercaptan |  | 
CCCCOCc1ccc(O)c(OC)c1 [Hotact ®VBE, vanillyl butyl ether] |  |  | 13% (2×) and 10% | Methyl Mercaptan Suppression (%) [2, 3]: 13% and 7% and 8% and 10% and 12% and 17%
CC1=CCC(=O)O1 [angelica lactone alpha] | 47% and 31% and 69% | suppressed the amount of methyl mercaptan | 32% and 22% and 30% | Methyl Mercaptan Suppression (%) ([1]; 200 ppm test compound alone): 94% and 93% and 86%
CC1C=CC(=O)O1 (stereo not drawn) [angelica lactone beta] | 10% and 26% and 41% | suppressed the amount of methyl mercaptan |  | 
O=C1O[C@H]([C@@H](O)CO)C(O)=C1O [ascorbic acid, reference compound] |  |  |  | Methyl Mercaptan Suppression (%) [2, 3]: 11%; synergistic malodor suppression or elimination effect of the combination with a phenolic compound (in words) ([2]; ethanol conditions, combination compared with additive effect of single components): do not exhibit a synergistic malodor elimination effect when combined with phenolic compounds
C=CCc1ccc(O)c(OC)c1 [eugenol] |  |  | 8% and 14% and 11% | 
COC(=O)c1ccccc1O [methyl salicylate] |  |  | 9% and 10% and 8% | 
CC1=C2CCC(C)CC2OC1=O (stereo not shown) [mint lactone] |  | suppressed the amount of methyl mercaptan |  | Methyl Mercaptan Suppression (%) ([1]; 200 ppm test compound alone): 87% and 100% (2×)
